According to article PMC3400110 (Journal of Medicinal Chemistry, 2009):
Several values for one entry are separate records, joined by “and”; a condition that tells them apart may be missing. Identical values can stand only once. Like-named read-outs stand apart in the source and are kept apart here.

Legend:
human P-gp-His10 [1] = target: T1, human P-gp-His10 (Homo sapiens, UniProt P08183)
human P-gp-His10 [2] = target: T1, human P-gp-His10; experiment: Stimulation of human P-gp-His10 ATPase activity; details: read-out: KM (apparent Michaelis-Menten constant, concentration for half maximal stimulation of ATPase activity)
[3] = system: MDCKII-MDR1 transfected cells, which over-express P-gp; experiment: Transport and cell association across monolayers of MDCKII-MDR1 cells; details: 5 μM dye, 4.3 mg mL^−1 BSA (23-Se: no added BSA); for PAB (absorptive transport), + inh / PBA (secretory transport), + inh: + […] inhibitor 42
log P = assay type: physicochemical; details: n-octanol/water
[4] = system: MDCKII-MDR1 transfected cells, which over-express P-gp; details: dog, MDCK-MDR1
P-gp = experiment: in vitro; details: dog, MDCK-MDR1

T1 sequence (P08183 whole entry): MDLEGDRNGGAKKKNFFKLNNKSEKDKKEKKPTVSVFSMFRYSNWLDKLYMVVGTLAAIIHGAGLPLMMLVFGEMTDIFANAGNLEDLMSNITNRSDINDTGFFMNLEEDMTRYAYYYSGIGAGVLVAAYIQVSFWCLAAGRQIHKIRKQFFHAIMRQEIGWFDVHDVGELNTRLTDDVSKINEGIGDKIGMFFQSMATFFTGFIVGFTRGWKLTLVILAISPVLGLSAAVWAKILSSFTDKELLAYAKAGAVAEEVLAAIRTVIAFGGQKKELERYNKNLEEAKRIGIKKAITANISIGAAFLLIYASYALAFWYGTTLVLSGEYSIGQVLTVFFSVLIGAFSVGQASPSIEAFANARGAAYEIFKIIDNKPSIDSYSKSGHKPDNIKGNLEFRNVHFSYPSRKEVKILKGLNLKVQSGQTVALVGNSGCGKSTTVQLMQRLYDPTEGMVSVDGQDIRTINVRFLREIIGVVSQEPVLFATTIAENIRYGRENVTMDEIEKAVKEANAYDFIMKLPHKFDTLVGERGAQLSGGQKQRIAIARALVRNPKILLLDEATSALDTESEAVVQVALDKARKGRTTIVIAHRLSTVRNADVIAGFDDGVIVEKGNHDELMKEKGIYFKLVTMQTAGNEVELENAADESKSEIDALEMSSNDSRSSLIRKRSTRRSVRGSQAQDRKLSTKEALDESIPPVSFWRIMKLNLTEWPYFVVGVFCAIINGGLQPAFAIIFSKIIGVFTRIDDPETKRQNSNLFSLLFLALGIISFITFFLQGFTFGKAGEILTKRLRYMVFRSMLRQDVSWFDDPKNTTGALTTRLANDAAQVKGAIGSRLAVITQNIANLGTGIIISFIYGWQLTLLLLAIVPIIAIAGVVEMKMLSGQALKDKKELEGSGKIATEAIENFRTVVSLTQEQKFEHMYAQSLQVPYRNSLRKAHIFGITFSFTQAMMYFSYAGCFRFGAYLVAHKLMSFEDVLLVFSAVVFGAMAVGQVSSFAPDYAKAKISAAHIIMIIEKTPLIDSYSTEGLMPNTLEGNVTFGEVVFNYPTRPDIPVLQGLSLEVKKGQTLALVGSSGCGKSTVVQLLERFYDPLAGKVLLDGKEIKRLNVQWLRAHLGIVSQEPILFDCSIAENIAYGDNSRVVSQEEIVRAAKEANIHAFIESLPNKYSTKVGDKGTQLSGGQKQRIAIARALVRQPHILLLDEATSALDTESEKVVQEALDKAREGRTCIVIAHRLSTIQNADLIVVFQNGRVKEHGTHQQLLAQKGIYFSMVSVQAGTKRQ

Km (human P-gp-His10 [2]) [µM] | SMILES | Km (human P-gp-His10 [1]) [µM] | also measured
 | CN(C)c1ccc(-c2c3ccc(=[N+](C)C)cc-3[te]c3cc(N(C)C)ccc23)cc1 [Compound 5-Te] | 9 ± 0.8 | 
 | COc1cccc(-c2c3ccc(=[N+](C)C)cc-3[se]c3cc(N(C)C)ccc23)c1 [Compound 10-Se] | 3.3 ± 0.6 | 
8.3 ± 1.2 | CN(C)c1ccc(-c2c3ccc(=[N+](C)C)cc-3sc3cc(N(C)C)ccc23)cc1 [Compound 5-S] |  | 
3.9 ± 0.1 | COc1cccc(-c2c3ccc(=[N+](C)C)cc-3sc3cc(N(C)C)ccc23)c1 [Compound 10-S] |  | 
 | CN(C)c1ccc2c(-c3ccccc3)c3ccc(=[N+](C)C)cc-3[te]c2c1 [Compound 1-Te] | 8.3 ± 0.8 | 
 | CN(C)c1ccc2c(-c3ccc(CCl)cc3)c3ccc(=[N+](C)C)cc-3oc2c1.[Br-] [TMR, tetramethylrosamine] |  | P BA/AB (ratio of secretory to absorptive transport), + inh [4]: 338 1.6; PAB (absorptive transport) [4]: 3.0 ± 0.1 14 ± 1 nm s^−1; PAB (absorptive transport), + inh [4]: 3.0 ± 0.1 14 ± 1 nm s^−1; PBA (secretory transport), + inh [4]: 1010 ± 10 21 ± 2 nm s^−1; Papp (P-gp): 1.7 ± 0.5 ×10⁻⁶ cm/s
 | COc1cccc(-c2c3ccc(=[N+](C)C)cc-3[te]c3cc(N(C)C)ccc23)c1 [Compound 10-Te] | 3.2 ± 1 | 
 | CN(C)c1ccc2c(-c3ccccc3)c3ccc(=[N+](C)C)cc-3[se]c2c1 [Compound 1-Se] | 9.1 ± 1.1 | 
3.4 ± 0.6 | CN(C)c1cccc(-c2c3ccc(=[N+](C)C)cc-3sc3cc(N(C)C)ccc23)c1 [Compound 7-S] |  | 
0.36 ± 0.08 | CN(C)c1ccc2c(-c3ccc(C(=S)N4CCCCC4)s3)c3ccc(N(C)C)cc3[s+]c2c1 [Compound 30-S, 3,6-Bis(dimethylamino)-9-(N-piperidyl-2-thienyl-5-thiocarboxamido)thioxanthylium Hexafluorophosphate] |  | 
 | CN(C)c1cccc(-c2c3ccc(=[N+](C)C)cc-3[te]c3cc(N(C)C)ccc23)c1 [Compound 7-Te] | 2 ± 0.1 | 
 | CN(C)c1cccc(-c2c3ccc(=[N+](C)C)cc-3[se]c3cc(N(C)C)ccc23)c1 [Compound 7-Se] | 3.5 ± 0.2 | 
 | CN(C)c1ccc(-c2c3ccc(=[N+](C)C)cc-3[se]c3cc(N(C)C)ccc23)cc1 [Compound 5-Se] | 10.1 ± 0.7 | 

SMILES | Km (human P-gp-His10 [2]) [µM] | Km (human P-gp-His10 [1]) [µM] | also measured
CN(C)c1ccc2c(-c3ccc(C(=S)N4CCCCC4)s3)c3ccc(N(C)C)cc3[te+]c2c1.F[P-](F)(F)(F)(F)F [Compound 30-Te, 3,6-Bisa(dimethylamino)-9-(N-piperidyl-2-thienyl-5-thiocarboxamido)telluroxanthylium Hexafluorophosphate] | 0.41 ± 0.03 |  | PAB (absorptive transport), + inh [3]: 1.2 ± 0.1 nm/s; PBA (secretory transport), + inh [3]: 0.2 ± 0.01 ×10⁻⁶ cm/s; PAB (absorptive transport) ([3]; no inhibitor): 0.09 ± 0.01 ×10⁻⁶ cm/s; PBA (secretory transport) ([3]; no inhibitor): 2.2 ± 0.8 ×10⁻⁶ cm/s; log P (log P): 0.9
CN(C)c1ccc2c(-c3ccc(C(=S)N4CCCCC4)s3)c3cc4c5c(c3[s+]c2c1)CCCN5CCC4.F[P-](F)(F)(F)(F)F [Compound 31-S, 12-(Dimethylamino)-2,3,6,7-tetrahydro-9-(N-Piperidyl-2-thienyl-5-thiocarboxamido)-1H,5H-thioxantheno[2,3,4-ij]quinolizin-14-ium Hexafluorophosphate] | 0.087 ± 0.012 |  | PAB (absorptive transport), + inh [3]: 0.8 ± 0.1 0.8 ± 0.1 nm s^−1; PBA (secretory transport), + inh [3]: 0.16 ± 0.01 ×10⁻⁶ cm/s; PBA (secretory transport) ([3]; no inhibitor): 5 ×10⁻⁶ cm/s and 5 ± 0.1 ×10⁻⁶ cm/s
